In patent US10822376B2, “Biologically active peptides” (Baxalta Incorporated, priority 2008, dated 2020):

Experiment: in vitro
Conditions: human, pH 7.4

Substance: Ac-RMKFDVWDLYFEIVW-NH2 [Peptide A01]
- recovery at 6 h, 5 μM: > 88.6%
- fraction unbound at 6 h, 5 μM (plasma): < 0.017
